Test system: CYP1A in Hep-i(+) cells
Experiment: Determination of CYP1A activity and CYP1A1/CYP1A2 gene expression after 3-MC treatment
Type: cell-based, rat
Conditions: 5 μM for 4 days
Experimental: In order to induce CYP1A activity, cells on Day 8 of hepatocyte induction were treated with 5 μM 3-methylcholanthrene (3-MC) (Sigma) for 4 days (the medium was exchanged on the second day). The control cells were treated only with DMSO as a solvent. Four days later, P450-G1o CYP1A1 Assay (Luciferin-CEE) was used to determine CYP1A activity. According to the manufacturer's instruction, this kit can detect CYP1A2 activity more efficiently than CYP1A1 activity. Following CYP1A activity, the DNA content of the cells was measured to normalize the CYP activity. In order to examine the responsiveness to 3-MC, fold changes in activity were calculated as [mean luminescence in the presence of 3-MC/mean luminescence in the absence of 3-MC] for 3 wells/condition in each experiment to determine an average value for five independent experiments. In two experiments, total RNA was isolated to assess the gene expression levels of CYP1A1 and CTP1A2.

Cc1ccc2cc3c(ccc4ccccc43)c3c2c1CC3 [3-MC, 3-methylcholanthrene]
CYP1A1 and CYP1A2 gene expressions in response to stimulation: efficiently induced
CYP1A activity in response to stimulation: efficiently induced

From patent US10961507B2, “Method for producing hepatic stem/precursor cells from mature hepatic cells using low-molecular-weight compound” (Cynity Co., Ltd., priority 2016, dated 2021)
